Reference: ChEMBL document CHEMBL1201862, “PubChem BioAssay data set” (2004)
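A five-concentration, 48-hour dose response in 96-well plates underlies each endpoint, interpolated linearly between surrounding concentrations. At the GI50, growth is halved.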 Calls of active or inactive are those of the source. No stated cut-off is given here; in the data, active = GI50 up to about 1.1 µM and inactive = higher.

Tests used:
Assay in all cases: growth of human tumour cells (NCI), 48 h
786-0 = tested on: 786-0
A498 = tested on: A498
A549 = tested on: A549
ACHN = tested on: ACHN
BT-549 = tested on: BT-549
CAKI-1 = tested on: CAKI-1
CCRF-CEM = tested on: CCRF-CEM
COLO 205 = tested on: COLO 205
DU-145 = tested on: DU-145
EKVX = tested on: EKVX
HCC 2998 = tested on: HCC 2998
HCT-116 = tested on: HCT-116
HCT-15 = tested on: HCT-15
HL-60 = tested on: HL-60
HOP-62 = tested on: HOP-62
HT-29 = tested on: HT-29
Hs-578T = tested on: Hs-578T
IGROV-1 = tested on: IGROV-1
K562 = tested on: K562
KM12 = tested on: KM12
LOX IMVI = tested on: LOX IMVI
M14 = tested on: M14
MCF7 = tested on: MCF7
MDA-MB-231 = tested on: MDA-MB-231
MDA-MB-435 = tested on: MDA-MB-435
MDA-N = tested on: MDA-N
MOLT-4 = tested on: MOLT-4
Malme-3M = tested on: Malme-3M
NCI-H226 = tested on: NCI-H226
NCI-H23 = tested on: NCI-H23
NCI-H460 = tested on: NCI-H460
NCI-H522 = tested on: NCI-H522
OVCAR-3 = tested on: OVCAR-3
OVCAR-4 = tested on: OVCAR-4
OVCAR-5 = tested on: OVCAR-5
OVCAR-8 = tested on: OVCAR-8
PC-3 = tested on: PC-3
RPMI-8226 = tested on: RPMI-8226
RXF 393 = tested on: RXF 393
SF-268 = tested on: SF-268
SF-295 = tested on: SF-295
SF-539 = tested on: SF-539
SK-MEL-28 = tested on: SK-MEL-28
SK-MEL-2 = tested on: SK-MEL-2
SK-MEL-5 = tested on: SK-MEL-5
SK-OV-3 = tested on: SK-OV-3
SN12C = tested on: SN12C
SNB-19 = tested on: SNB-19
SNB-75 = tested on: SNB-75
SR = tested on: SR
SW-620 = tested on: SW-620
T47D = tested on: T47D
TK-10 = tested on: TK-10
U-251 = tested on: U-251
UACC-257 = tested on: UACC-257
UACC-62 = tested on: UACC-62
UO-31 = tested on: UO-31
NCI/ADR-RES = tested on: NCI/ADR-RES

CN(C)CCNC(=O)c1cc([N+](=O)[O-])cn1C
GI50 (786-0): > 100 µM (inactive)
GI50 (A498): > 100 µM (inactive)
GI50 (A549): > 100 µM (inactive)
GI50 (ACHN): > 100 µM (inactive)
GI50 (BT-549): > 100 µM (inactive)
GI50 (CAKI-1): > 100 µM (inactive)
GI50 (CCRF-CEM): > 100 µM (inactive)
GI50 (COLO 205): > 100 µM (inactive)
GI50 (DU-145): > 100 µM (inactive)
GI50 (EKVX): > 100 µM (inactive)
GI50 (HCC 2998): > 100 µM (inactive)
GI50 (HCT-116): > 100 µM (inactive)
GI50 (HCT-15): > 100 µM
GI50 (HL-60): > 100 µM (inactive)
GI50 (HOP-62): > 100 µM (inactive)
GI50 (HT-29): > 100 µM (inactive)
GI50 (Hs-578T): > 100 µM (inactive)
GI50 (IGROV-1): > 100 µM (inactive)
GI50 (K562): > 100 µM (inactive)
GI50 (KM12): > 100 µM (inactive)
GI50 (LOX IMVI): > 100 µM (inactive)
GI50 (M14): > 100 µM (inactive)
GI50 (MCF7): > 100 µM (inactive)
GI50 (MDA-MB-231): > 100 µM (inactive)
GI50 (MDA-MB-435): > 100 µM (inactive)
GI50 (MDA-N): > 100 µM (inactive)
GI50 (MOLT-4): > 100 µM (inactive)
GI50 (Malme-3M): > 100 µM (inactive)
GI50 (NCI-H226): > 100 µM (inactive)
GI50 (NCI-H23): > 100 µM (inactive)
GI50 (NCI-H460): > 100 µM (inactive)
GI50 (NCI-H522): > 100 µM (inactive)
GI50 (OVCAR-3): > 100 µM (inactive)
GI50 (OVCAR-4): > 100 µM (inactive)
GI50 (OVCAR-5): > 100 µM (inactive)
GI50 (OVCAR-8): > 100 µM (inactive)
GI50 (PC-3): > 100 µM (inactive)
GI50 (RPMI-8226): > 100 µM (inactive)
GI50 (RXF 393): > 100 µM (inactive)
GI50 (SF-268): > 100 µM (inactive)
GI50 (SF-295): > 100 µM (inactive)
GI50 (SF-539): > 100 µM (inactive)
GI50 (SK-MEL-28): > 100 µM (inactive)
GI50 (SK-MEL-2): > 100 µM (inactive)
GI50 (SK-MEL-5): > 100 µM (inactive)
GI50 (SK-OV-3): > 100 µM (inactive)
GI50 (SN12C): > 100 µM (inactive)
GI50 (SNB-19): > 100 µM (inactive)
GI50 (SNB-75): > 100 µM (inactive)
GI50 (SR): > 100 µM (inactive)
GI50 (SW-620): > 100 µM (inactive)
GI50 (T47D): > 100 µM (inactive)
GI50 (TK-10): > 100 µM (inactive)
GI50 (U-251): > 100 µM (inactive)
GI50 (UACC-257): > 100 µM (inactive)
GI50 (UACC-62): > 100 µM (inactive)
GI50 (UO-31): > 100 µM (inactive)

O=[N+]([O-])c1sc2ccc(Cl)cc2c1Nc1ccc(Cl)cc1
GI50 (786-0): > 100 µM (inactive)
GI50 (A498): > 100 µM (inactive)
GI50 (A549): > 100 µM (inactive)
GI50 (ACHN): > 100 µM (inactive)
GI50 (BT-549): > 100 µM (inactive)
GI50 (CCRF-CEM): > 100 µM (inactive)
GI50 (COLO 205): > 100 µM (inactive)
GI50 (DU-145): > 100 µM (inactive)
GI50 (EKVX): > 100 µM (inactive)
GI50 (HCC 2998): > 100 µM (inactive)
GI50 (HCT-15): > 100 µM
GI50 (HL-60): > 100 µM (inactive)
GI50 (HOP-62): > 100 µM (inactive)
GI50 (HT-29): > 100 µM (inactive)
GI50 (Hs-578T): > 100 µM (inactive)
GI50 (IGROV-1): > 100 µM (inactive)
GI50 (K562): > 100 µM (inactive)
GI50 (KM12): > 100 µM (inactive)
GI50 (LOX IMVI): > 100 µM (inactive)
GI50 (M14): > 100 µM (inactive)
GI50 (MCF7): > 100 µM (inactive)
GI50 (MDA-MB-231): > 100 µM (inactive)
GI50 (MDA-MB-435): > 100 µM (inactive)
GI50 (MOLT-4): > 100 µM (inactive)
GI50 (Malme-3M): > 100 µM (inactive)
GI50 (NCI-H226): > 100 µM (inactive)
GI50 (NCI-H23): > 100 µM (inactive)
GI50 (NCI-H460): > 100 µM (inactive)
GI50 (NCI-H522): > 100 µM (inactive)
GI50 (NCI/ADR-RES): > 100 µM (inactive)
GI50 (OVCAR-3): > 100 µM (inactive)
GI50 (OVCAR-4): 2.55 µM (inactive)
GI50 (OVCAR-5): > 100 µM (inactive)
GI50 (OVCAR-8): > 100 µM (inactive)
GI50 (PC-3): > 100 µM (inactive)
GI50 (RPMI-8226): > 100 µM (inactive)
GI50 (RXF 393): > 100 µM (inactive)
GI50 (SF-268): > 100 µM (inactive)
GI50 (SF-295): > 100 µM (inactive)
GI50 (SF-539): > 100 µM (inactive)
GI50 (SK-MEL-28): > 100 µM (inactive)
GI50 (SK-MEL-2): > 100 µM (inactive)
GI50 (SK-MEL-5): > 100 µM (inactive)
GI50 (SK-OV-3): > 100 µM (inactive)
GI50 (SN12C): > 100 µM (inactive)
GI50 (SNB-19): > 100 µM (inactive)
GI50 (SNB-75): > 100 µM (inactive)
GI50 (SW-620): > 100 µM (inactive)
GI50 (T47D): > 100 µM (inactive)
GI50 (TK-10): > 100 µM (inactive)
GI50 (U-251): > 100 µM (inactive)
GI50 (UACC-62): > 100 µM (inactive)
GI50 (UO-31): > 100 µM (inactive)
